Laboratory results from ChEMBL document CHEMBL4311969, “Polygala tenuifolia-Acori tatarinowii herbal pair as an inspiration for substituted cinnamic α-asaronol esters: Design, synthesis, anticonvulsant activity, and inhibition of lactate dehydrogenase study” (Eur J Med Chem, 2019).
Where “and” joins values, the source holds several entries; their conditions need not be identical. Equal values may be shown once. Calls of active or inactive are those of the source. No cut-off for these calls is given here.

What was measured:
[1] = system: Mus musculus; assay: Anticonvulsant activity in Kunming mouse assessed as reduction in ScPTZ-induced mortality rate at 300 mg/kg, ip administered 0.5 hrs before ScPTZ stimulation relative to control; format: functional; parameters: scale not given: the % may be the effect or the level left
[2] = system: Mus musculus; assay: Anticonvulsant activity in Kunming mouse assessed as reduction in Sc3-MP-induced seizure at 300 mg/kg, ip administered 0.25 and 1 hrs before Sc3-MP stimulation relative to control; format: functional, organism-based
[3] = system: Mus musculus; assay: Anticonvulsant activity in Kunming mouse assessed as reduction in Sc3-MP-induced seizure at 300 mg/kg, ip administered 0.5 hrs before Sc3-MP stimulation relative to control; format: functional; parameters: scale not given: the % may be the effect or the level left
[4] = system: Mus musculus; assay: Anticonvulsant activity in Kunming mouse assessed as reduction in Sc3-MP-induced tonic seizure rate at 300 mg/kg, ip administered 0.5 hrs before Sc3-MP stimulation relative to control; format: functional; parameters: scale not given: the % may be the effect or the level left
[5] = system: Mus musculus; assay: Anticonvulsant activity in Kunming mouse assessed as MES-induced hind limb extension at 100 mg/kg, ip administered 3 hrs before MES stimulation; format: functional, organism-based
[6] = (§1) Protective index, ratio of TD50 for neurotoxicity against ip dosed Kunming mouse assessed as time remained in rod measured at 0.5 hrs by rotarod test to ED50 for anticonvulsant activity in ip dosed Kunming mouse assessed as reduction in ScPTZ-induced seizure administered 0.5 hrs before ScPTZ stimulation; format: toxicity, organism-based; conditions: in vivo, read-out: PI
[7] = system: Mus musculus; assay: Anticonvulsant activity in Kunming mouse assessed as reduction in ScPTZ-induced seizure at 300 mg/kg, ip administered 0.25 to 2 hrs before ScPTZ stimulation relative to control; format: functional; parameters: scale not given: the % may be the effect or the level left
[8] = as §1, with “Sc3-MP-induced” for “ScPTZ-induced”, “Sc3-MP” for “ScPTZ”; format: toxicity, organism-based; conditions: in vivo, read-out: PI
[9] = system: Mus musculus; assay: Anticonvulsant activity in Kunming mouse assessed as reduction in ScPTZ-induced seizure at 100 mg/kg, ip administered 0.25 to 2 hrs before ScPTZ stimulation relative to control; format: functional
[10] = Neurotoxicity against ip dosed Kunming mouse assessed as time remained in rod measured at 0.5 hrs by rotarod test; format: toxicity, organism-based; conditions: in vivo
[11] = system: Mus musculus; assay: Anticonvulsant activity in Kunming mouse assessed as reduction in Sc3-MP-induced mortality rate at 300 mg/kg, ip administered 0.5 hrs before Sc3-MP stimulation relative to control; format: functional; parameters: scale not given: the % may be the effect or the level left
[12] = system: Mus musculus; assay: […] activity in ip dosed Kunming mouse assessed as reduction in formalin-induced paw licking administered 0.5 hrs before formalin stimulation; format: functional
[13] = system: Mus musculus; assay: Anticonvulsant activity in Kunming mouse assessed as reduction in ScPTZ-induced tonic seizure rate at 100 mg/kg, ip administered 0.5 hrs before ScPTZ stimulation relative to control; format: functional; parameters: scale not given: the % may be the effect or the level left
[14] = system: Mus musculus; assay: Anticonvulsant activity in Kunming mouse assessed as MES-induced hind limb extension at 50 mg/kg, ip administered 0.5 and 2 hrs before MES stimulation relative to control; format: functional
[15] = system: Mus musculus; assay: Anticonvulsant activity in ip dosed Kunming mouse assessed as reduction in ScPTZ-induced seizure administered 0.5 hrs before ScPTZ stimulation; format: functional
[16] = system: Mus musculus; assay: Anticonvulsant activity in ip dosed Kunming mouse assessed as MES-induced hind limb extension administered 0.5 hrs before MES stimulation; format: functional
[17] = organism: Homo sapiens; assay: Inhibition of human LDH1 at 0.5 mM using sodium pyruvate as substrate by UV-VIS spectrophotometry method relative to control
[18] = system: Mus musculus; assay: Anticonvulsant activity in Kunming mouse assessed as reduction in ScPTZ-induced seizure at 100 mg/kg, ip administered 0.25 and 1 hrs before ScPTZ stimulation relative to control; format: functional; parameters: scale not given: the % may be the effect or the level left
[19] = system: Mus musculus; assay: Anticonvulsant activity in Kunming mouse assessed as reduction in ScPTZ-induced clonic seizure at 100 mg/kg, ip administered 0.5 hrs before ScPTZ stimulation relative to control; format: functional; parameters: scale not given: the % may be the effect or the level left
[20] = Protective index, ratio of TD50 for neurotoxicity against ip dosed Kunming mouse assessed as time remained in rod measured at 0.5 hrs by rotarod test to ED50 for anticonvulsant activity in ip dosed Kunming mouse assessed as MES-induced hind limb extension administered 0.5 hrs; format: toxicity, organism-based; conditions: in vivo, read-out: PI
[21] = system: Mus musculus; assay: Anticonvulsant activity in Kunming mouse assessed as MES-induced hind limb extension at 100 mg/kg, ip administered 0. 5 to 4 hrs before MES stimulation relative to control; format: functional
[22] = system: Mus musculus; assay: Anticonvulsant activity in Kunming mouse assessed as reduction in ScPTZ-induced clonic seizure at 300 mg/kg, ip administered 0.5 hrs before ScPTZ stimulation relative to control; format: functional; parameters: scale not given: the % may be the effect or the level left
[23] = system: Mus musculus; assay: Anticonvulsant activity in Kunming mouse assessed as reduction in ScPTZ-induced tonic seizure rate at 300 mg/kg, ip administered 0.5 hrs before ScPTZ stimulation relative to control; format: functional; parameters: scale not given: the % may be the effect or the level left
[24] = system: Mus musculus; assay: Anticonvulsant activity in Kunming mouse assessed as reduction in Sc3-MP-induced clonic seizure rate at 300 mg/kg, ip administered 0.5 hrs before Sc3-MP stimulation relative to control; format: functional; parameters: scale not given: the % may be the effect or the level left
[25] = Neurotoxicity against Kunming mouse assessed as time remained in rod at 100 mg/kg, ip administered 0.5 to 2 hrs by rotarod test; format: toxicity, organism-based; conditions: in vivo
[26] = system: Mus musculus; assay: Anticonvulsant activity in Kunming mouse assessed as reduction in Sc3-MP-induced seizure ip dosed measured at 0.5 hrs before Sc3-MP stimulation; format: functional
[27] = system: Mus musculus; assay: Anticonvulsant activity in Kunming mouse assessed as MES-induced hind limb extension at 100 mg/kg, ip administered 0. 5 to 2 hrs before MES stimulation; format: functional, organism-based
[28] = organism: Homo sapiens; assay: Inhibition of human LDH5 at 0.5 mM using sodium pyruvate as substrate by UV-VIS spectrophotometry method relative to control
[29] = as §1, with “formalin-induced paw licking” for “ScPTZ-induced seizure”, “formalin” for “ScPTZ”; format: toxicity, organism-based; conditions: in vivo, read-out: PI
[30] = system: Mus musculus; assay: Anticonvulsant activity in Kunming mouse assessed as MES-induced hind limb extension at 50 mg/kg, ip administered 0.5 to 4 hrs before MES stimulation relative to control; format: functional
[31] = system: Mus musculus; assay: Anticonvulsant activity in Kunming mouse assessed as MES-induced hind limb extension at 100 mg/kg, ip administered 0. 5 hrs before MES stimulation relative to control; format: functional

Row | Compound | Activity [4] [%] | selectivity ratio at 0.5 h [6] | Activity [7] [%] | selectivity ratio at 0.5 h [8] | Activity [9] | TD50 at 0.5 h [10] | ED50 [12] | Activity [13] [%] | Activity [14] | ED50 [15] | ED50 [16] | inhibition [17] | Activity [19] [%] | selectivity ratio at 0.5 h [20] | Activity [21] | Activity [22] [%] | Activity [23] [%] | Activity [24] [%] | Activity [25] | ED50 [26] | other results
1 | COc1cc(OC)c(OC)cc1/C=C/COC(=O)/C=C/c1cccc(Br)c1 | 50 | 5 | 50 | > 4.6 | inactive | > 2310 µmol/kg and > 1000 mg/kg | 113 mg/kg and 260 µmol/kg | 100 | inactive | > 200 mg/kg and > 462 µmol/kg | 175 µmol/kg and 75.7 mg/kg | < 5% | 100 | > 13.2 | 25 - 100% | 100 | 25 | 100 | Non-Toxic | 215 mg/kg and 497 µmol/kg | Activity [1]: 0%; Activity [2]: Active; Activity [3]: 50%; Activity [5]: Active; Activity [11]: 0%; Activity [18]: 75%; Activity [27]: Active; inhibition [28]: < 9%; selectivity ratio at 0.5 h [29]: > 8.9
2 | COc1cc(OC)c(OC)cc1/C=C/COC(=O)/C=C/c1ccc(OC)c(OC)c1OC | 75 | > 4.9 | 50 | 3.3 | inactive | > 1000 mg/kg and > 2250 µmol/kg | 78.4 mg/kg and 176 µmol/kg | 100 | 50% | 203 mg/kg and 456 µmol/kg | 33.4 mg/kg and 75.1 µmol/kg | 7% | 100 | > 29.9 | 25 - 100% | 100 | 25 | 100 | Non-Toxic | > 300 mg/kg and > 675 µmol/kg | Activity [30]: 50%; Activity [18]: 75%; Activity [31]: 100%; Activity [27]: Active; inhibition [28]: 8%; selectivity ratio at 0.5 h [29]: > 12.8
3 | COc1cccc(/C=C/C(=O)OC/C=C/c2cc(OC)c(OC)cc2OC)c1 | 75 | > 4.1 | 50 | > 4 | inactive | > 1000 mg/kg and > 2600 µmol/kg | > 100 mg/kg and > 260 µmol/kg | 100 | inactive | 247 mg/kg and 643 µmol/kg | 72.9 mg/kg and 190 µmol/kg | inactive | 100 | > 13.7 | 25 - 100% | 100 | 50 | 100 | Non-Toxic | 249 mg/kg and 647 µmol/kg | Activity [1]: 0%; Activity [11]: 25%; Activity [27]: Active; inhibition [28]: inactive; selectivity ratio at 0.5 h [29]: > 8.9
